For 14 molecules, Emax and EC50 results are on record in US10202382B2 (Purdue Pharma L.P., priority 2014, dated 2019).

As a reminder, the Emax is the size of the effect at its maximum, as opposed to the concentration needed. Usually EC50 stands for the concentration at which the effect is half-maximal.

The assay deals with T1, μ-opioid receptor (Homo sapiens, UniProt P35372).
T1 construct: expressed in transfected cells; host or cells: HEK-293
In words: μ-opioid receptor [35S]GTPγS functional assay. The format is biochemical. Conditions: HEK-293 cells; for Emax: maximal effect relative to DAMGO. How it is done:
[^35S]GTPγS functional assays were conducted using freshly thawed μ-receptor membranes prepared in-house from a cell line expressing recombinant μ opioid receptor in a HEK-293, CHO or U-2 OS cell background, or purchased from a commercial source (Perkin Elmer, Shelton, Conn.; or DiscovRx, Fremont, Calif.). Assay reactions were prepared by sequentially adding the following reagents to binding buffer (100 mM NaCl, 10 mM MgCl2, 20 mM HEPES, pH 7.4) on ice (final concentrations indicated): membrane protein (0.026 mg/mL), saponin ([…]), GDP ([…]) and [^35S]GTPγS (0.20 nM; Perkin Elmer, Shelton, Conn.). The prepared membrane solution (190 μl/well) was transferred to 96-shallow well polypropylene plates containing 10 μl of 20× concentrated stock solutions of the agonist [D-Ala^2, N-methyl-Phe^4 Gly-ol^5]-enkephalin (DAMGO) prepared in dimethyl sulfoxide (DMSO). Plates were incubated for 30 min at about 25° C. with shaking. Reactions were terminated by rapid filtration onto 96-well Unifilter GF/B filter plates (Perkin Elmer, Shelton, Conn.) using a 96-well tissue harvester (Perkin Elmer, Shelton, Conn.) followed by three filtration washes with 200 μl of ice-cold wash buffer (10 mM NaH2PO4, 10 mM Na2HPO4, pH 7.4). Filter plates were subsequently dried at 50° C. for 2-3 hours. BetaScint scintillation cocktail (Perkin Elmer, Shelton, Conn.) was added (50 μl/well) and plates were counted using a Packard Top-Count for 1 min/well. Data were analyzed using the sigmoidal dose-response curve fitting functions in GraphPad PRISM v. 3.0, or an in-house function for non-linear, sigmoidal dose-response curve-fitting.
μ GTP EC50 is the concentration of a compound providing 50% of the maximal response for the compound at a μ-opioid receptor.
μ GTP Emax (%) is the maximal effect elicited by a compound relative to the effect elicited by DAMGO, a standard agonist. Generally, the μ GTP Emax (%) value measures the efficacy of a compound to treat or prevent pain or other Conditions.
In TABLE 1, activity response of certain Compounds of the Invention to the μ-opioid receptors was determined as described above for functional assays using HEK-293 cells.
On the technique in general: GTPγS resists hydrolysis and so accumulates on activated G proteins.

Setting [1] is: membranes with recombinant μ opioid receptor.
The mark [2] stands for this setting: cell prints μM under an nM head.

T1 sequence (P35372 whole entry, species assumed): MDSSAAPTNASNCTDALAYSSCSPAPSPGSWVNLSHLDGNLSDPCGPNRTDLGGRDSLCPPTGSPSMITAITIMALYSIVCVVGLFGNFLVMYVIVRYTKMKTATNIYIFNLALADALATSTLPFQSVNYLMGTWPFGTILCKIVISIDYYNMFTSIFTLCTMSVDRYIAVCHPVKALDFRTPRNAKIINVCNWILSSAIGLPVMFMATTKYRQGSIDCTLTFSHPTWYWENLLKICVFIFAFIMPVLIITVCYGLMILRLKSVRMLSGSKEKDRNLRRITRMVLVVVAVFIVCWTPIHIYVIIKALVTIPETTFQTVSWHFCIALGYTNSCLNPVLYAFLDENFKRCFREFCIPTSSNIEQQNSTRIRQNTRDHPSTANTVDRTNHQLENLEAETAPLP

As for `CN1CC[C@]23CC(=O)NC[C@H]2[C@H]1Cc1ccc(O)cc13` [Compound 24, (4aS,5R,10bS)-9-hydroxy-13-methyl-4,4a,5,6-tetrahydro-1H-5,10b-(epiminoethano)benzo[f]isoquinolin-2(3H)-one], the Emax was 52 ± 2.08%. For the same molecule, the EC50 under setting [1] was found to be 1.38 ± 0.104 µM.

On to `CN1CC[C@]23CCNC[C@H]2[C@H]1Cc1ccc(O)cc13` [Compound 25, (4aS,5R,10bR)-13-methyl-2,3,4,4a,5,6-hexahydro-1H-5,10b-(epiminoethano)benzo[f]isoquinolin-9-ol], for which the Emax amounted to 43.7 ± 1.45%. In addition, the EC50 under setting [1] was 8.36 ± 0.929 µM.

For the molecule `COc1ccc2c(c1)[C@]13CCN(C)[C@H](C2)[C@@H]1CNC(=O)C3` [Compound 11, (4aS,5R,10bS)-9-methoxy-13-methyl-4,4a,5,6-tetrahydro-1H-5,10b-(epiminoethano)benzo[f]isoquinolin-2(3H)-one], the Emax was 57.8 ± 2.68%. Under setting [2], this molecule had an EC50 above 20 µM.

For the molecule `COc1ccc(CN2C[C@H]3[C@H]4Cc5ccc(OC)cc5[C@@]3(CCN4C)CC2=O)cc1` [Compound 8, (4aS,5R,10bS)-9-methoxy-3-(4-methoxybenzyl)-13-methyl-4,4a,5,6-tetrahydro-1H-5,10b-(epiminoethano)benzo[f]isoquinolin-2(3H)-one], the Emax worked out at 70.3 ± 1.67%. Moreover, the half-maximal effective concentration (EC50) under setting [2] is above 20 µM.

The molecule `CN1CC[C@]23CCN(CC4CC4)C[C@H]2[C@H]1Cc1ccc(O)cc13` [Compound 27, (4aS,5R,10bR)-3-(cyclopropylmethyl)-13-methyl-2,3,4,4a,5,6-hexahydro-1H-5,10b-(epiminoethano)benzo[f]isoquinolin-9-ol] gave an Emax of 44.4 ± 2.5%. Moreover, the EC50 under setting [1] worked out at 14 ± 1.94 µM.

Turning to `CN1CC[C@]23CCN(C(=O)Nc4ccccc4)C[C@H]2[C@H]1Cc1ccc(O)cc13` [Compound 33, (4aS,5R,10bS)-9-hydroxy-13-methyl-N-phenyl-1,2,4,4a,5,6-hexahydro-3H-5,10b-(epiminoethano)benzo[f]isoquinoline-3-carboxamide], the maximal response (Emax) worked out at 54.7 ± 8.35%. For the same molecule, the EC50 under setting [1] is 0.152 ± 0.00519 µM.

`CN1CC[C@]23CC(=O)N(CC4CC4)C[C@H]2[C@H]1Cc1ccc(O)cc13` [Compound 26]: the Emax is 67.7 ± 1.2%. Besides, the EC50 under setting [1] was 0.881 ± 0.183 µM.

`CC(C)C(=O)N1CC[C@]23CCN(C)[C@H](Cc4ccc(O)cc42)[C@@H]3C1` [Compound 30, 1-((4aS,5R,10bS)-9-hydroxy-13-methyl-1,2,4,4a,5,6-hexahydro-3H-5,10b-(epiminoethano)benzo[f]isoquinolin-3-yl)-2-methylpropan-1-one] returned a maximal response (Emax) of 37.2 ± 1.18%. Further, the EC50 under setting [1] amounted to 0.733 ± 0.0407 µM.

In the case of `CN1CC[C@]23CC(=O)N(Cc4ccccc4)C[C@H]2[C@H]1Cc1ccc(O)cc13` [Compound 28], the maximum response (Emax) is 58.7 ± 4.84%. Moreover, the EC50 under setting [1] was determined as 2.73 ± 0.392 µM.

In turn, `CC(=O)N1CC[C@]23CCN(C)[C@H](Cc4ccc(O)cc42)[C@@H]3C1` [Compound 29, 1-((4aS,5R,10bS)-9-hydroxy-13-methyl-1,2,4,4a,5,6-hexahydro-3H-5,10b-(epiminoethano)benzo[f]isoquinolin-3-yl)ethan-1-one] yielded a maximal response (Emax) of 64.7 ± 4.63%. Besides, under setting [1], the EC50 worked out at 0.298 ± 0.0278 µM.

`CN1CC[C@]23CCN(Cc4ccc(O)cc4)C[C@H]2[C@H]1Cc1ccc(O)cc13` [Compound 23, (4aS,5R,10bR)-3-(4-hydroxybenzyl)-13-methyl-2,3,4,4a,5,6-hexahydro-1H-5,10b-(epiminoethano)benzo[f]isoquinolin-9-ol] displayed an Emax of 51.7 ± 2.85%. The EC50 under setting [1] was determined as 1.59 ± 0.0616 µM.

For `CN1CC[C@]23CCN(C)[C@H](Cc4ccc(O)cc42)[C@@H]3C1` [Compound 32, (4aS,5R,10bR)-3,13-dimethyl-2,3,4,4a,5,6-hexahydro-1H-5,10b-(epiminoethano)benzo[f]isoquinolin-9-ol], the Emax was determined as 71.7 ± 3.18%. Further, the EC50 under setting [1] was 1.07 ± 0.14 µM.

`CN1CC[C@]23CCN(C(=O)C4CC4)C[C@H]2[C@H]1Cc1ccc(O)cc13` [Compound 31, Cyclopropyl ((4aS,5R,10bS)-9-hydroxy-13-methyl-1,2,4,4a,5,6-hexahydro-3H-5,10b-(epiminoethano)benzo[f]isoquinolin-3-yl)methanone] showed an Emax of 49 ± 1.53%. For the same molecule, the EC50 under setting [1] was found to be 0.725 ± 0.0265 µM.

On to `COc1ccc(CN2CC[C@]34CCN(C)[C@H](Cc5ccc(OC)cc53)[C@@H]4C2)cc1` [Compound 9, (4aS,5R,10bR)-9-methoxy-3-(4-methoxybenzyl)-13-methyl-2,3,4,4a,5,6-hexahydro-1H-5,10b-(epiminoethano)benzo[f]isoquinoline], for which the maximum response (Emax) was determined as 28.7 ± 1.45%. The EC50 under setting [2] is above 20 µM.
